Data from US9115147B2, “Tricyclic derivatives and their pharmaceutical use and compositions” (Cephalon, Inc., priority 2009, dated 2015).

The compounds below were run against T1, human 5-HT6 receptor (Homo sapiens, UniProt P50406) (assay: Human 5-HT6 Receptor Binding Assay ([3H]LSD, scintillation beads)). Settings: Human 5-HT6 Ki (nM), actual data; membranes of CHO-K1 cells with recombinant human 5-HT6 receptor, 4 nM [3H]LSD.
T1 construct: host or cells: CHO-K1 cells, stably transfected; membranes prepared in house
T1 sequence (P50406 whole entry): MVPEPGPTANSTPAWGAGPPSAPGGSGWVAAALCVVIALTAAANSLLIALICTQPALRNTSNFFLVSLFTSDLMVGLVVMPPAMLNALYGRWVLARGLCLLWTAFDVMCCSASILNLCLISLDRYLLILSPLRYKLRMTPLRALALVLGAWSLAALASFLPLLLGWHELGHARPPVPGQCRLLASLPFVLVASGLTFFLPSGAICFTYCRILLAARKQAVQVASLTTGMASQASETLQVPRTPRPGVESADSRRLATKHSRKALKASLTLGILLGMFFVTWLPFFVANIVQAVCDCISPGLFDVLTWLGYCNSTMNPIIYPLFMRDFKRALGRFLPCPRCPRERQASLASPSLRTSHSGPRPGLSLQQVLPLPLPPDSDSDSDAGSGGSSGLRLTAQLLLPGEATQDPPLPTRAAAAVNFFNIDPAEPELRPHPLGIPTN
Procedure: Human 5-HT6 Receptor Binding Assay
Membranes were prepared from CHO-K1 cells stably transfected with the human 5-HT6 receptor (Euroscreen; ES-316-C). The cells were grown in Gibco Advanced DMEM-F12 (Cat#12634010) containing 2% dialyzed FBS (Hyclone Cat#SH30079.03). The cells were harvested in phosphate buffered saline (PBS) containing 0.1 mM EDTA and pelleted by centrifugation (1000×g), the supernatant was discarded and the pellets were stored at −80° C. prior to membrane preparation. Membranes were prepared as previously described (J Bio Chem. 1992, 267 (14) 9844-51). Briefly, frozen cell pellet was resuspended in a lysis buffer containing 5 mM Tris-HCl (pH 7.5), 5 mM EDTA and 1 complete EDTA-free protease inhibitor tablet (Roche Applied Science, Indianapolis, Ind.) per 50 mL buffer, and homogenized with a tissue homogenizer. The cell lysate was then centrifuged at 40,000×g for 30 min at 4° C. to collect the membranes. The membrane pellets were washed in membrane buffer (50 mM Tris-HCl (pH 7.5), 0.6 mM EDTA, 5 mM MgCl2, 1 complete EDTA-free protease inhibitor tablet per 50 mL buffer) using a tissue homogenizer. The membranes were centrifuged at 40,000×g for 30 min at 4° C. and the pellets were resuspended in membrane buffer containing 250 mM sucrose, and protein concentration was determined using the Coomassie Plus kit (Pierce Biotechnology, Rockford, Ill.).
Membranes prepared from cells expressing recombinant human 5-HT6 receptor (h5-HT6) were resuspended in assay buffer containing 50 mM Tris HCl, (pH7.4), 4 mM CaCl2, 10 μg/mL saponin, and 0.1% (w/v) ascorbic acid. Membranes were preincubated using 1.75 μg membrane protein and 0.25 mg FlashBlue scintillation beads (PerkinElmer catalogue #FB001) per well at 4° C. for 30 min. […] Test compounds or assay controls for total and non-specific binding were diluted in DMSO as 100× solutions and serially diluted by half log concentrations on a Perkin Elmer JANUS Automated Workstation. Serotonin (10 μM final concentration) was used to determine non-specific binding in the assay. Plates were read using the Microbeta Trilux 1450 LSC and luminescence counter. Data were analyzed by nonlinear […] using the dose-response equation (variable slope) to calculate IC50 in XLfit4 (ID Business Solutions Inc.): y=(Bottom+((Top−Bottom)/(1+((IC50/x)^Hill slope))))
Ki value was then calculated according to the Cheng-Prusoff method using the equation below (Cheng and Prusoff, 1973): Ki, app=IC50/(1+([radioligand]/Kd))
For `COc1cncc(S(=O)(=O)c2ccc3c(c2)OCC2NCCC32)c1` (racemic) [Example 110, 7-[(5-methoxypyridin-3-yl)sulfonyl]-1,2,3,3a,4,9b-hexahydrochromeno[3,4-b]pyrrole], the Ki was 98.4 nM.

Same assay, conditions: Human 5-HT6 Ki app (nM), membranes of CHO-K1 cells with recombinant human 5-HT6 receptor, 4 nM [3H]LSD, Cheng-Prusoff
For `O=S(=O)(c1cncc(Br)c1)c1ccc2c(c1)OCC1NCCC21` (single isomer, unassigned) [Example 28, 7-[(5-bromopyridin-3-yl)sulfonyl]-1,2,3,3a,4,9b-hexahydrochromeno[3,4-b]pyrrole], the Ki was < 500 nM. `COc1cncc(S(=O)(=O)c2ccc3c(c2)OCC2NCCC32)c1` (racemic) [Example 110, 7-[(5-methoxypyridin-3-yl)sulfonyl]-1,2,3,3a,4,9b-hexahydrochromeno[3,4-b]pyrrole] was tested, and the Ki was < 500 nM. In the case of `O=S(=O)(c1cncc(Cl)c1)c1ccc2c(c1)OCC1NCCC21` (racemic) [Example 111, 7-[(5-chloropyridin-3-yl)sulfonyl]-1,2,3,3a,4,9b-hexahydrochromeno[3,4-b]pyrrole], the Ki is reported as < 500 nM. `O=S(=O)(c1cncc(Cl)c1)c1ccc2c(c1)OCC1NCCC21` (single isomer, unassigned) [Example 30, 7-[(5-chloropyridin-3-yl)sulfonyl]-1,2,3,3a,4,9b-hexahydrochromeno[3,4-b]pyrrole] was tested, and the Ki was < 500 nM.

Same assay, conditions: membranes of CHO-K1 cells with recombinant human 5-HT6 receptor, 4 nM [3H]LSD, Cheng-Prusoff; read-out: Human 5-HT6 Ki app
For `O=S(=O)(c1ccccc1)c1ccc2c(c1)OCC1C2CCN1C1CCCC1` (single isomer, unassigned) [Example 61, 3-cyclopentyl-7-(phenylsulfonyl)-1,2,3,3a,4,9b-hexahydrochromeno[3,4-b]pyrrole], the Ki was < 500 nM. With `CC(C)COc1cc(F)cc(S(=O)(=O)c2ccc3c(c2)OCC2NCCC32)c1` (single isomer, unassigned) [Example 39, 7-{[3-fluoro-5-(2-methylpropoxy)phenyl]sulfonyl}-1,2,3,3a,4,9b-hexahydrochromeno[3,4-b]pyrrole] the Ki was < 500 nM. For `O=S(=O)(c1cccc(OC(F)(F)F)c1)c1ccc2c(c1)OCC1NCCC21` (single isomer, unassigned) [Example 16, 7-{[3-(trifluoromethoxy)phenyl]sulfonyl}-1,2,3,3a,4,9b-hexahydrochromeno[3,4-b]pyrrole], the Ki was < 500 nM. In the case of `Cc1cccc(Sc2ccc3c(c2)OCC2C3CCN2C2CCC2)n1` (single isomer, unassigned) [Example 82, 3-cyclobutyl-7-[(6-methylpyridin-2-yl)sulfanyl]-1,2,3,3a,4,9b-hexahydrochromeno[3,4-b]pyrrole], the Ki is reported as > 1000 nM. `CC(C)Oc1cccc(S(=O)(=O)c2ccc3c(c2)OCC2NCCC32)c1` (single isomer, unassigned) [Example 9, 7-{[3-(propan-2-yloxy)phenyl]sulfonyl}-1,2,3,3a,4,9b-hexahydrochromeno[3,4-b]pyrrole] was tested, and the Ki was < 500 nM. `O=S(=O)(c1cc(Cl)cc(Cl)c1)c1ccc2c(c1)OCC1NCCC21` (single isomer, unassigned) [Example 12, 7-[(3,5-dichlorophenyl)sulfonyl]-1,2,3,3a,4,9b-hexahydrochromeno[3,4-b]pyrrole] was tested, and the Ki was < 500 nM. For `CN(C)C(=O)c1cccc(S(=O)(=O)c2ccc3c(c2)OC[C@H]2NCC[C@@H]32)c1` (single isomer, unassigned) [Example 38], the Ki was < 500 nM. With `Cc1cccc([S+]([O-])c2ccc3c(c2)OCC2C3CCN2C2CCC2)n1` (single isomer, unassigned) [Example 83, 3-cyclobutyl-7-[(6-methylpyridin-2-yl)sulfinyl]-1,2,3,3a,4,9b-hexahydrochromeno[3,4-b]pyrrole] the Ki was > 1000 nM. With `O=S(=O)(c1cncc(C(F)(F)F)c1)c1ccc2c(c1)OCC1NCCC21` (single isomer, unassigned) [Example 51, 7-{[5-(trifluoromethyl)pyridin-3-yl]sulfonyl}-1,2,3,3a,4,9b-hexahydrochromeno[3,4-b]pyrrole] the Ki was < 500 nM. `COc1cncc(S(=O)(=O)c2ccc3c(c2)OCC2C3CCN2C2CCC2)c1` (single isomer, unassigned) [Example 74, 3-cyclobutyl-7-[(5-methoxypyridin-3-yl)sulfonyl]-1,2,3,3a,4,9b-hexahydrochromeno[3,4-b]pyrrole] was tested, and the Ki was > 1000 nM. For `O=S(=O)(c1cccc(F)c1)c1ccc2c(c1)OCC1NCCC21` (single isomer, unassigned) [Example 1, 7-[(3-fluorophenyl)sulfonyl]-1,2,3,3a,4,9b-hexahydrochromeno[3,4-b]pyrrole], the Ki was < 500 nM. For `COCCN1CCC2c3ccc(S(=O)(=O)c4ccccc4)cc3OCC21` (single isomer, unassigned) [Example 92, 3-(2-methoxyethyl)-7-(phenylsulfonyl)-1,2,3,3a,4,9b-hexahydrochromeno[3,4-b]pyrrole], the Ki was < 500 nM. Work on `O=S(=O)(c1cncc(C(F)(F)F)c1)c1ccc2c(c1)OCC1NCCC21` (single isomer, unassigned) [Example 52, 7-{[5-(trifluoromethyl)pyridin-3-yl]sulfonyl}-1,2,3,3a,4,9b-hexahydrochromeno[3,4-b]pyrrole] yielded a Ki of 500 to 1000 nM. With `O=S(=O)(c1cncc(F)c1)c1ccc2c(c1)OCC1C2CCN1C1CCC1` (single isomer, unassigned) [Example 75, 3-cyclobutyl-7-[(5-fluoropyridin-3-yl)sulfonyl]-1,2,3,3a,4,9b-hexahydrochromeno[3,4-b]pyrrole] the Ki was > 1000 nM. `O=S(=O)(c1ccccc1)c1ccc2c(c1)OCC1C2CCN1CCc1ccccc1` (single isomer, unassigned) [Example 96, 3-(2-phenylethyl)-7-(phenylsulfonyl)-1,2,3,3a,4,9b-hexahydrochromeno[3,4-b]pyrrole] was tested, and the Ki was < 500 nM. `O=S(=O)(c1ccccc1)c1ccc2c(c1)OCC1C2CCN1C1CCC1` (single isomer, unassigned) [Example 59, 3-cyclobutyl-7-(phenylsulfonyl)-1,2,3,3a,4,9b-hexahydrochromeno[3,4-b]pyrrole] was tested, and the Ki was 500 to 1000 nM. For `[O-][S+](c1ccccc1)c1ccc2c(c1)OCC1NCCC21` (racemic) [Example 106, 7-(phenylsulfinyl)-1,2,3,3a,4,9b-hexahydrochromeno[3,4-b]pyrrole], the Ki was < 500 nM. With `O=S(=O)(c1ccccc1)c1ccc2c(c1)OCC1C2CCN1C1CCCCC1` (single isomer, unassigned) [Example 63, 3-cyclohexyl-7-(phenylsulfonyl)-1,2,3,3a,4,9b-hexahydrochromeno[3,4-b]pyrrole] the Ki was < 500 nM. With `CC(C)CN1CCC2c3ccc(S(=O)(=O)c4ccccc4)cc3OCC21` (single isomer, unassigned) [Example 98, 3-(2-methylpropyl)-7-(phenylsulfonyl)-1,2,3,3a,4,9b-hexahydrochromeno[3,4-b]pyrrole] the Ki was > 1000 nM. With `COc1cc(F)cc(S(=O)(=O)c2ccc3c(c2)OCC2NCCC32)c1` (racemic) [Example 109, 7-[(3-fluoro-5-methoxyphenyl)sulfonyl]-1,2,3,3a,4,9b-hexahydrochromeno[3,4-b]pyrrole] the Ki was < 500 nM. `O=S(=O)(c1ccccc1)c1ccc2c(c1)OCC1C2CCN1CC1CC1` (single isomer, unassigned) [Example 72, 3-(cyclopropylmethyl)-7-(phenylsulfonyl)-1,2,3,3a,4,9b-hexahydrochromeno[3,4-b]pyrrole] was tested, and the Ki was > 1000 nM. `O=S(=O)(c1cccc(F)c1)c1ccc2c(c1)OCC1NCCC21` (single isomer, unassigned) [Example 10, 7-[(3-fluorophenyl)sulfonyl]-1,2,3,3a,4,9b-hexahydrochromeno[3,4-b]pyrrole] was tested, and the Ki was < 500 nM. For `O=S(=O)(c1cccc(C(F)(F)F)c1)c1ccc2c(c1)OCC1NCCC21` (single isomer, unassigned) [Example 8, 7-{[3-(trifluoromethyl)phenyl]sulfonyl}-1,2,3,3a,4,9b-hexahydrochromeno[3,4-b]pyrrole], the Ki was < 500 nM.
